Here are results for three compounds from patent US20200223826A1, “Glucose-6-Phosphate Dehydrogenase (G6PD)-Modulating Agents And Methods Of Treating G6PD Deficiency” (The Board of Trustees of the Leland Stanford Junior …, priority 2017, published 2020).

The AC50 is the midpoint of the concentration-response curve, whichever way the signal moves.

Marks after values point to notes of the source that are not given here.

Series [1] concerns the target T1, Canton G6PD (Homo sapiens, UniProt P11413, R459L).
T1 construct: His (pET-28a) (N, cleaved yes); made in house; host or cells: E. coli C43 (DE3)
Kind of series: Canton G6PD enzyme activity, diaphorase-coupled assay. The following applies: Canton G6PD. Format: biochemical. As for the experimental part:
(§1) Enzyme activity was measured by monitoring NADPH production, which was coupled with diaphorase converting resazurin to fluorescent resorufin (excitation at 565 nm and emission at 590 nm); fluorescent signal was thus proportional to G6PD activity. Assays were performed at 25° C. and run for 5 minutes in buffer containing 50 mM Tris (pH 7.4), 0.5 mM EDTA, 3.3 mM MgCl2, 1 U/ml diaphorase, 0.1 mM resazurin. 10 ng of recombinant enzymes or 10 μg of cell lysates was used for the assay with 10 μM NADP^+ (Sigma) as cofactor and 100 μM G6P (Sigma) as substrate. Steady-state kinetic parameters were obtained by varying concentrations of NADP^+ (0-10 μM) with a constant concentration of G6P (100 μM) and similarly for G6P (0-100 μM) with a constant concentration of NADP^+ (10 μM) with 10 ng of recombinant enzymes. Data analysis was performed using GraphPad Prism software v.6 (GraphPad Software, La Jolla, Calif. USA). Kinetic parameters were obtained by fitting the data to the Michaelis-Menten equation.
The diaphorase-coupled enzyme assay as described above was used to screen a library of compounds for small molecule activators. The compounds were added to Canton G6PD enzyme reaction mixture at a final concentration of 16.67 μM using Caliper Life Sciences Staccato system with a Twister II robot and a Sciclone ALH3000 (Caliper Life Sciences, Alameda, Calif. USA) integrated with a V&P Scientific pin tool, which was followed by incubation for 3 hours. Addition of G6P then initiated the reaction, which was run for 2.5 minutes. The fluorescent signals were recorded 4 times during the run using Molecular Devices AnalystGT (Molecular Devices, Sunnyvale, Calif. USA). Any compounds showing 30% activation of the enzyme were rescreened in a dose-dependent manner (0-30 μM, duplicate) to identify potential hits.
(§2) Based on preliminary results with compound AG1, a variety of compounds of interest were prepared and assessed in G6PD enzyme activation assays, according to the methods described herein.

The target in series [2] is T2, Canton W509A G6PD (Homo sapiens, UniProt P11413, R459L/W509A).
T2 construct: His (pET-28a) (N, cleaved yes); made in house; host or cells: E. coli C43 (DE3)
Kind of series: Canton W509A G6PD enzyme activation. Format: biochemical. As for the experimental part:
as §1, §2

The target in series [3] is T3, wt G6PD obtained from a blood sample (Homo sapiens, UniProt P11413).
T3 construct: tissue Stanford Blood Center; host or cells: blood / erythrocytes
The series is described as follows: G6PD enzyme activation on wt G6PD from a blood sample. It is filed as biochemical. The following applies: 100 uM compound. Here is the method:
Enzyme activity was measured by monitoring NADPH production, which was coupled with diaphorase converting resazurin to fluorescent resorufin (excitation at 565 nm and emission at 590 nm); fluorescent signal was thus proportional to G6PD activity. Assays were performed at 25° C. and run for 5 minutes in buffer containing 50 mM Tris (pH 7.4), 0.5 mM EDTA, 3.3 mM MgCl2, 1 U/ml diaphorase, 0.1 mM resazurin. 10 ng of recombinant enzymes or 10 μg of cell lysates was used for the assay with 10 μM NADP^+ (Sigma) as cofactor and 100 μM G6P (Sigma) as substrate. […]
De-identified blood samples were obtained from the Stanford Blood Center. […] G6PD activity was measured (Beutler E. Red cell metabolism: A manual of biochemical methods (3rd edition). Grune & Stratton (1984)). […] Hemoglobin release in the supernatant was monitored by measuring absorbance at 540 nm. […] After wash, the samples were lysed with 0.1% Triton X-100 (final concentration), and the florescence was analyzed with excitation/emission at 485/525 nm. GSH measurement was determined using a Cayman glutathione assay kit (Cayman Chemicals, 703002). […] The absorbance was read at 412 nm. For storage assay, a 5% erythrocyte suspension was stored at 4° C. with and without 1 μM AG1, and hemolysis and G6PD activity were monitored every week for 28 days to examine whether AG1 improves preservation of erythrocytes over time. […]

The subject of series [4] is zebrafish embryos. The series is described as follows: Pericardial edema in zebrafish embryos. Format: in vivo. The note with it: 50 μg/ml at 24 hpf. Here is the method: Embryos were dechorinated with pronase at 24 hours post fertilization (hpf) and treated with 50 μg/ml of chloroquine and/or AG1 by directly adding the compounds to the well. For ROS measurements, embryos were incubated with compounds for 2 hours, and then the ROS detecting reagent (CM-H2DCFDA) was added at a final concentration of 500 ng/ml to the well for a total treatment time of 5 hours. One embryo was placed to each well of a black, opaque 96-well plate. The florescence was analyzed with excitation/emission at 485/525 nm. After ROS assays, embryos at about 32 hpf were pooled and lysed in buffer containing 50 mM Tris (pH 7.4), 150 mM NaCl, 1 mM EDTA, 0.1% NP-40, and protease inhibitor cocktail, which was followed by three cycles of freeze and thawing in liquid nitrogen. The lysate was centrifuged at 14,000 rpm at 4° C. for 15 minutes. Total protein concentration in the supernatants (total lysate) was determined by Bradford method. 50 μg of total lysate was loaded onto 10% SDS-PAGE gels and the protein level was examined by Western blot using anti-G6PD antibody (Abcam (G6PD: AB87230)). 10 μg of total lysate was used for enzymatic assay. 50 μg of the lysate was used to measure NADPH levels using a NADPH quantification kit (Biovision), according to the manufacturer's instructions.
Live embryos were anesthetized and mounted in 3% methylcellulose. Embryos were imaged with a Leica M205FA microscope equipped with a 1.0× Plan Apochromatic objective and a SPOT Flex camera or a Leica DM4500B compound microscope equipped with a QImaging Retiga-SRV camera. For hemoglobin staining, fixed embryos were stained with o-dianisidine as previously reported (10), cleared, mounted in 100% glycerol, and imaged with a Leica M205FA microscope equipped with a 1.0× Plan Apochromatic objective and a SPOT Flex camera. All images were captured using SPOT or MetaMorph imaging software (Diagnostic Imaging Inc.) and processed in Photoshop (Adobe). Adjustments were limited to brightness levels and cropping. Analysis was carried out by an observer blinded to the experimental conditions.

For series [5], the system named is G6PD. The series is described as follows: G6PD activation activity, compounds with various linkers. The following applies: 100 uM compound. Format: biochemical.
Procedure: Enzyme activity was measured by monitoring NADPH production, which was coupled with diaphorase converting resazurin to fluorescent resorufin (excitation at 565 nm and emission at 590 nm); fluorescent signal was thus proportional to G6PD activity. Assays were performed at 25° C. and run for 5 minutes in buffer containing 50 mM Tris (pH 7.4), 0.5 mM EDTA, 3.3 mM MgCl2, 1 U/ml diaphorase, 0.1 mM resazurin. 10 ng of recombinant enzymes or 10 μg of cell lysates was used for the assay with 10 μM NADP^+ (Sigma) as cofactor and 100 μM G6P (Sigma) as substrate. […] Data analysis was performed using GraphPad Prism software v.6 (GraphPad Software, La Jolla, Calif. USA).
The subject of series [6] is point mutants of the Canton variant of G6PD. Kind of series: Effect of point mutations of Canton G6PD on compound activity. Format: biochemical, human. The note with it: mutations on the side opposite the putative binding site. As for the experimental part: The gene encoding wild-type (WT) G6PD was inserted into the pET-28a vector, using NdeI and SalI restriction sites by polymerase chain reaction (PCR). Site-directed mutagenesis to generate G6PD variants was performed using appropriate primer sets according to the manufacturer's guidelines (Agilent). All constructs were verified by sequencing.
as §1, with “equation. […]” for “equation.”

T1 sequence (P11413 whole entry R459L): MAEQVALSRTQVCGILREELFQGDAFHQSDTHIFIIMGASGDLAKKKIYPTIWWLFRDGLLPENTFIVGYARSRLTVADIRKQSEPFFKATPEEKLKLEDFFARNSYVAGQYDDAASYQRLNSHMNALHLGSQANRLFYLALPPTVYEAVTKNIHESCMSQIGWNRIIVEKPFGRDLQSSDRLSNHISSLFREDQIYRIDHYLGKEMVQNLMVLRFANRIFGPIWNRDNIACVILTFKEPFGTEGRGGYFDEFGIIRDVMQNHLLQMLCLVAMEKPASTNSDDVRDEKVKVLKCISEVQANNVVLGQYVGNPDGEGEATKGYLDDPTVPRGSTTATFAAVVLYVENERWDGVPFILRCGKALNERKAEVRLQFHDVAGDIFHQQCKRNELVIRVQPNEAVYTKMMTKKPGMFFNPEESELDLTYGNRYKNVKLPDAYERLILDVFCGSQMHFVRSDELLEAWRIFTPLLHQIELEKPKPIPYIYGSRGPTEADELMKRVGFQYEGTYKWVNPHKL
T2 sequence (P11413 whole entry R459L/W509A): as the sequence (P11413 whole entry R459L) above, with W509A counted along it
T3 sequence (P11413 2-515 limits assumed): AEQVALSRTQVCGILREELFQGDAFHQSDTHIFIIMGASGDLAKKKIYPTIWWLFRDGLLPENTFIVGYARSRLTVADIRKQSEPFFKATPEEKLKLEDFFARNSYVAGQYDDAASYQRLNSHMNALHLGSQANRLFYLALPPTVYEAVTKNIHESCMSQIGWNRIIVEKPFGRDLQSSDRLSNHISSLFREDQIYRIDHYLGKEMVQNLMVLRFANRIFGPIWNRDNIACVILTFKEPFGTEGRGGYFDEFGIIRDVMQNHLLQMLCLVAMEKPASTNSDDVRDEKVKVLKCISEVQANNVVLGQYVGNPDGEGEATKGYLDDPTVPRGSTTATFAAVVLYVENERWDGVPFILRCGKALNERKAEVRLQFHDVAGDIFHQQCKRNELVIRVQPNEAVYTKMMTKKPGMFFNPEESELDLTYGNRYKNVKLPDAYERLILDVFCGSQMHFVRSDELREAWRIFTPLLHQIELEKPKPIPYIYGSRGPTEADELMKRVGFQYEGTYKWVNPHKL

In series [1], `c1cc(CNCCc2ccc3c(c2)OCO3)c2c(CNCCc3ccc4c(c3)OCO4)cccc2c1` [AR4-078] had a concentration at half-maximal activity (AC50) of 74 µM and an Amax of 2.0. Besides, in series [2], the concentration at half-maximal activity (AC50) stood at 58 µM and the Amax came to 3.8. In series [3], the enzyme activity at 100 µM worked out at 154%.

With `CCN(CC)CCCC(C)Nc1ccnc2cc(Cl)ccc12` (stereo not drawn) [chloroquine, reference compound], the “effect of chloroquine on embryos” value in series [4] was “led to pericardial edema and increased ROS levels”.

With “2-[2-(1H-indol-3-yl)ethylamino]ethanethiol [AG1]”, the figures for the “Enzyme activity (%)” value in series [5] and in series [3] were 156%^c and 127%, respectively. Moreover, the “effect of mutations on AC50” value in series [6] is reported as “no effect on AC50”.
